# Reference: patent publication US8134015B2, “Compound inhibiting in vivo phosphorous transport and medicine containing the same” (Kyowa Hakko Kirin Co., Ltd., priority 2003, dated 2012)
# Target: T1, rat NaPi-2b (Rattus norvegicus, UniProt Q9JJ09)
# T1 construct: expressed in transfected cells; host or cells: Xenopus oocytes injected with cRNA
# T1 sequence (Q9JJ09 1-695): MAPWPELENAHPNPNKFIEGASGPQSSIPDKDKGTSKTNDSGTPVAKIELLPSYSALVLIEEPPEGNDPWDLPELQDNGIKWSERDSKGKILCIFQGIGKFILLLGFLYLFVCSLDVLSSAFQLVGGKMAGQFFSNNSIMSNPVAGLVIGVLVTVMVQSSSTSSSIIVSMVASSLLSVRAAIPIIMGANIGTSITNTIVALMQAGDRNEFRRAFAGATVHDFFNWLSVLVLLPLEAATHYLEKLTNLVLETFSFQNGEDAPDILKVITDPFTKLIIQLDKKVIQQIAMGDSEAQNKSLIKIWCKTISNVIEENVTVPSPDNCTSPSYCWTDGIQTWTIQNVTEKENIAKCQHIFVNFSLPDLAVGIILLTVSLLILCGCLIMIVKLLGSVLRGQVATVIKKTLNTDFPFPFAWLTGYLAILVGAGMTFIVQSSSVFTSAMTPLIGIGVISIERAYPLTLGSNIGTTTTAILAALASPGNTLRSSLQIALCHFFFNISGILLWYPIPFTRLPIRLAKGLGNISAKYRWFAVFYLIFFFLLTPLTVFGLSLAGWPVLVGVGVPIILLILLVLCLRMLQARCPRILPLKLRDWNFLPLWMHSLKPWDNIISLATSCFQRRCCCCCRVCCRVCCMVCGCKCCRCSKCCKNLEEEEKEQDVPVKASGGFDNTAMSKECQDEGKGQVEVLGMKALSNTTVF
# Experiment: Sodium-dependent phosphate uptake of Xenopus oocytes which expressed NaPi-2b (32P)
# Format: cell-based
# Conditions: Xenopus oocytes expressing rat NaPi-2b, 32P radioactive phosphorus; read-out: IC50 (phosphate uptake inhibitory activity)
# Procedure, shortened: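 Percent inhibition at 300 μM and 100 μM comes from the same inhibition curve of 32P uptake. Assay used oocytes expressing rat NaPi-2b after 2 days of culture.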
row,Compound,IC50 [µM]
1,"O=C(Nc1ccc(Br)cc1C(=O)N/N=C/c1cccc(F)c1)c1ccc(CSc2ccncc2)cc1 [Compound 255, N-[4-Bromo-2-(3-fluoro-benzylidene-hydrazinocarbonyl)-phenyl]-4-(pyridin-4-ylsulfanylmethyl)-benzamide]",3.54
2,"O=C(Nc1ccc(Br)cc1C(=O)N/N=C/c1ccc(F)cc1)c1ccc(CSc2ccncc2)cc1 [Compound 256, N-[4-Bromo-2-(4-fluoro-benzylidene-hydrazinocarbonyl)-phenyl]-4-(pyridin-4-ylsulfanylmethyl)-benzamide]",< 10
3,"Cc1cccc(/C=N/NC(=O)c2cc(Br)ccc2NC(=O)c2ccc(CSc3ccncc3)cc2)c1 [Compound 257, N-[4-Bromo-2-(3-methyl-benzylidene-hydrazinocarbonyl)-phenyl]-4-(pyridin-4-ylsulfanylmethyl)-benzamide]",< 3
4,"Cc1ccc(/C=N/NC(=O)c2cc(Br)ccc2NC(=O)c2ccc(CSc3ccncc3)cc2)cc1 [Compound 258, N-[4-Bromo-2-(4-methyl-benzylidene-hydrazinocarbonyl)-phenyl]-4-(pyridin-4-ylsulfanylmethyl)-benzamide]",< 3
5,"Cc1ccc(/C=N/NC(=O)c2cc(Br)ccc2NC(=O)c2ccc(CSc3ccncc3)cc2)cc1C [Compound 259, N-[4-Bromo-2-(3,4-dimethyl-benzylidene-hydrazinocarbonyl)-phenyl]-4-(pyridin-4-ylsulfanylmethyl)-benzamide]",< 3
6,"O=C(Nc1ccc(Br)cc1C(=O)N/N=C/c1cccc(F)c1)c1ccc(CSCCO)cc1 [Compound 261, N-[4-Bromo-2-(3-fluoro-benzylidene-hydrazinocarbonyl)-phenyl]-4-(2-hydroxy-ethylsulfanylmethyl)-benzamide]",< 3
7,"Cc1cccc(/C=N/NC(=O)c2cc(Br)ccc2NC(=O)c2ccc(CSCCO)cc2)c1 [Compound 263, N-[4-Bromo-2-(3-methyl-benzylidene-hydrazinocarbonyl)-phenyl]-4-(2-hydroxy-ethylsulfanylmethyl)-benzamide]",< 1
8,"Cc1ccc(/C=N/NC(=O)c2cc(Br)ccc2NC(=O)c2ccc(CSCCO)cc2)cc1C [Compound 265, N-[4-Bromo-2-(3,4-dimethyl-benzylidene-hydrazinocarbonyl)-phenyl]-4-(2-hydroxy-ethylsulfanylmethyl)-benzamide]",< 1
9,"O=C(Nc1ccc(Br)cc1C(=O)N/N=C/c1ccc(Cl)c(C(F)(F)F)c1)c1ccc(CSCCO)cc1 [Compound 266, N-[4-Bromo-2-(4-chloro-3-trifluoromethyl-benzylidene-hydrazinocarbonyl)-phenyl]-4-(2-hydroxy-ethylsulfanylmethyl)-benzamide]",< 1
10,"Cc1ccc(/C=N/NC(=O)c2cc(Br)ccc2NC(=O)c2cccc(CSc3nc[nH]n3)c2)cc1C [Compound 267, N-[4-Bromo-2-(3,4-dimethyl-benzylidene-hydrazinocarbonyl)-phenyl]-3-(1H-[1,2,4]triazol-3-ylsulfanylmethyl)-benzamide]",0.43
11,"Cc1ccc(/C=N/NC(=O)c2cc(Br)ccc2NC(=O)c2cccc(CSc3nc[nH]n3)c2)cc1 [Compound 268, N-[4-Bromo-2-(4-methyl-benzylidene-hydrazinocarbonyl)-phenyl]-3-(1H-[1,2,4]triazol-3-ylsulfanylmethyl)-benzamide]",1.02
12,"Cc1cccc(/C=N/NC(=O)c2cc(Br)ccc2NC(=O)c2cccc(CSc3nc[nH]n3)c2)c1 [Compound 269, N-[4-Bromo-2-(3-methyl-benzylidene-hydrazinocarbonyl)-phenyl]-3-(1H-[1,2,4]triazol-3-ylsulfanylmethyl)-benzamide]",2.19
13,"O=C(Nc1ccc(Br)cc1C(=O)N/N=C/c1ccc(F)cc1)c1cccc(CSc2nc[nH]n2)c1 [Compound 270, N-[4-Bromo-2-(4-fluoro-benzylidene-hydrazinocarbonyl)-phenyl]-3-(1H-[1,2,4]triazol-3-ylsulfanylmethyl)-benzamide]",5.04
14,"O=C(Nc1ccc(Br)cc1C(=O)N/N=C/c1cccc(F)c1)c1cccc(CSc2nc[nH]n2)c1 [Compound 271, N-[4-Bromo-2-(3-fluoro-benzylidene-hydrazinocarbonyl)-phenyl]-3-(1H-[1,2,4]triazol-3-ylsulfanylmethyl)-benzamide]",0.21
15,"O=C(Nc1ccc(Br)cc1C(=O)N/N=C/c1ccc(Cl)c(C(F)(F)F)c1)c1cccc(CSc2nc[nH]n2)c1 [Compound 272, N-[4-Bromo-2-(4-chloro-3-trifluoromethyl-benzylidene-hydrazinocarbonyl)-phenyl]-3-(1H-[1,2,4]triazol-3-ylsulfanylmethyl)-benzamide]",0.47

# Same assay, conditions: phosphate uptake, oocytes expressing rat NaPi-2b; 300 μM, determined from inhibition curve
row,Compound,inhibition at 300 µM [%]
1,"O=C(Nc1ccccc1C(=O)N/N=C/C=C/c1ccccc1)c1ccccc1 [Compound 235, N-[2-(3-Phenyl-allylidene-hydrazinocarbonyl)-phenyl]-benzamide]",47.9
2,"O=C(Nc1ccccc1C(=O)N/N=C/c1ccccc1F)c1ccccc1F [Compound 236, 2-Fluoro-N-[2-(2-fluoro-benzylidene-hydrazinocarbonyl)-phenyl]-benzamide]",49.4
3,"O=C(Nc1ccccc1C(=O)N/N=C/c1cccc(F)c1)c1ccccc1F [Compound 237, 2-Fluoro-N-[2-(3-fluoro-benzylidene-hydrazinocarbonyl)-phenyl]-benzamide]",33.1
4,"Cc1cccc(/C=N/NC(=O)c2ccccc2NC(=O)c2ccccc2F)c1 [Compound 238, 2-Fluoro-N-[2-(3-methyl-benzylidene-hydrazinocarbonyl)-phenyl]-benzamide]",30.6
5,"CC(C)(C)c1cccc(/C=N/NC(=O)c2ccccc2NC(=O)c2ccccc2F)c1O [Compound 239, N-[2-(3-Tert-butyl-2-hydroxy-benzylidene-hydrazinocarbonyl)-phenyl]-2-fluoro-benzamide]",59.1
6,"COc1ccc(C(=O)Nc2ccccc2C(=O)N/N=C/c2ccc([N+](=O)[O-])cc2)cc1OC [Compound 240, 3,4-Dimethoxy-N-[2-(4-nitro-benzylidene-hydrazinocarbonyl)-phenyl]-benzamide]",37.9
7,"CCN(CC)c1ccc(/C=N/NC(=O)c2ccccc2NC(=O)c2ccc(OC)c(OC)c2)cc1 [Compound 241, N-[2-(4-Diethylamino-benzylidene-hydrazinocarbonyl)-phenyl]-3,4-dimethoxy-benzamide]",46.9
8,"COc1cc(OC)cc(C(=O)Nc2ccc(O)cc2C(=O)N/N=C/c2cccc(F)c2)c1 [Compound 242, N-[2-(3-Fluoro-benzylidene-hydrazinocarbonyl)-4-hydroxy-phenyl]-3,5-dimethoxy-benzamide]",37.6
9,"COc1ccc(C(=O)Nc2ccc(Br)cc2C(=O)N/N=C/c2ccccn2)cc1OC [Compound 243, N-[4-Bromo-2-(pyridin-2-ylmethylene-hydrazinocarbonyl)-phenyl]-3,4-dimethoxy-benzamide]",50.2
10,"COc1ccc(C(=O)Nc2ccc(Cl)cc2C(=O)N/N=C/c2ccccn2)cc1OC [Compound 244, N-[4-Chloro-2-(pyridin-2-ylmethylene-hydrazinocarbonyl)-phenyl]-3,4-dimethoxy-benzamide]",30.7
11,COc1ccc(C(=O)Nc2ccccc2C(=O)N/N=C/c2ccccn2)cc1OC [Compound 245],31.7
12,"COc1ccc(C(=O)Nc2ccc(Cl)cc2C(=O)N/N=C/c2cccc(C)n2)cc1OC [Compound 246, N-[4-Chloro-2-(6-methyl-pyridin-2-ylmethylene-hydrazinocarbonyl)-phenyl]-3,4-dimethoxy-benzamide]",32.6
13,"COc1ccc(C(=O)Nc2ccccc2C(=O)N/N=C/c2cccc(C)n2)cc1OC [Compound 247, 3,4-Dimethoxy-N-[2-(6-methyl-pyridin-2-ylmethylene-hydrazinocarbonyl)-phenyl]-benzamide]",34.8
14,"Cc1cccc(C=NNC(=O)c2cc(Br)ccc2NC(=O)c2ccc(C(C)(C)C)cc2)c1 [Compound 248, N-[4-Bromo-2-(3-methyl-benzylidene-hydrazinocarbonyl)-phenyl]-4-tert-butyl-benzamide]",30.3
15,"C/C(=N\NC(=O)c1ccccc1NC(=O)c1ccncc1)c1cccc(C)c1 [Compound 249, N-[2-(1-m-Toluyl-ethylidene-hydrazinocarbonyl)-phenyl]-isonicotinamide]",41.6
16,"C/C(=N\NC(=O)c1cc(Cl)ccc1NC(=O)c1cccnc1)c1cccc(C)c1 [Compound 250, N-[4-Chloro-2-(1-m-toluyl-ethylidene-hydrazinocarbonyl)-phenyl]-nicotinamide]",37.9
17,"C/C(=N\NC(=O)c1ccccc1NC(=O)c1cccnc1)c1ccc(C)cc1 [Compound 251, N-[2-(1-p-Toluyl-ethylidene-hydrazinocarbonyl)-phenyl]-nicotinamide]",31.2
